Key:
[1] = system: pancreatic adenocarcinoma cells; assay: DNA synthesis by bromodeoxyuridine (BrdU) incorporation into adenocarcinoma cells; type: cell-based, human; conditions: 1 μM, 24 hours
Source text: To investigate whether these peptide hormones were inhibiting DNA synthesis and cell proliferation bromodeoxyuridine (BrdU) incorporation into the adenocarcinoma cells was utilized. BrdU was from BD Bioscience, San Jose, Calif. DNA synthesis and doubling of the genome take place during the synthetic or S phase. BrdU is a thymidine analog incorporated into nuclear DNA during the S phase of the cell cycle. Immunohistochemical methods use BrdU also as a marker of cell proliferation in cancer biology studies. After 24 hours in culture with 1 μM of LANP, vessel dilator, kaliuretic peptide, or ANP, respectively, or with no peptide hormone (i.e., control), BrdU in a final concentration of 10 μM in the cell culture medium was added for 45 minutes—which is time in which the cells are in the logarithmic phase of cell proliferation. For immunohistochemistry, a BrdU in situ detection kit from Becton Dickinson Immunocytochemistry Systems, San Jose, Calif., was utilized.
After the 45 minutes with BrdU, the adenocarcinoma cells were washed three times in phosphate buffered saline (PBS), five minutes each. This was followed by placing the cells in a −80° C. freezer for five minutes and then 100% methanol was added at 5° C. in order for the cells to become permeable enabling the anti-BrdU antibody to reach the nucleus of the cell. The cells were then washed again in PBS before 100 μl of biotinylated anti-BrdU antibody was added. The coverslips were then incubated in a humidified chamber for one hour. After this incubation, the slides were rinsed in PBS, two minutes each. Then streptavidin-horseradish peroxidase (HRP) was added to each coverslip. The cells were then incubated for 30 minutes. Streptavidin-HRP binds to biotinylated anti-BrdU and HRP is used with addition of diaminobenzidine (DAB) substrate system to visualize BrdU incorporation into the adénocarcinoma cells. After the 30 minute incubation with streptavidin-HRP, the coverslips were rinsed in PBS, two minutes each time, before adding the DAB substrate solution, which contains DAB chromagen and DAB buffer, for five minutes. The coverslips were then rinsed in water, two minutes each time before counterstaining the slides with hematoxylin for 60 seconds followed by a thorough rinsing in water for five minutes. The incorporation of the BrdU stain into the nucleus was then counted using a Nikon Inverted Diaphot-TMD Microscope (Tokyo, Japan). The number of stained nuclei was compared in the four peptide hormone groups to the positive control group. The negative control for these studies was provided by Becton Dickinson Immunocytochemistry Systems.
BrdU has an advantage over ^3H-thymidine incorporation in that it takes less time and provides high resolution.
Cyclic GMP and prostaglandin E2 are the two known mediators of all of the previously described biologic effects of these four peptide hormones. All four of these peptide hormones-induced vasodilation of vasculature is mediated by increased cyclic GMP concentrations via enhancing guanylate cyclase activity. […] ANPs effects in the kidney are thought to be mediated by cyclic GMP. Each of these peptide hormones increase cyclic GMP while simultaneously dilating vasculature. 8 bromo-cyclic GMP reproduces these vasodilatory effects. For the present investigation of the mechanism of these peptide hormones' ability to inhibit DNA synthesis in cancer cells, 8-bromoguanosine 3′,5′-cyclic monophosphate (i.e., 8-bromo cyclic GMP, Sigma-Aldrich Co., St. Louis, Mo.) was utilized. 8-bromo cyclic GMP is a cell-permeable analog of cyclic GMP. 8-bromo cyclic GMP effects on DNA synthesis were investigated in dose-response curves with cyclic GMP concentrations ranging from 100 pM to 5 mM.
Prostaglandin E2, i.e., (5Z, 11α, 13E, 15S)-11, 15-dihydro-9-oxo-prosta-5, 13-dien-I-oic acid was purchased from Sigma-Aldrich, St. Louis, Mo. […]

[2] = system: human pancreatic adenocarcinomas; assay: Growth of human pancreatic adenocarcinomas in vivo in athymic mice; parameters: species or system NCr athymic nude mice
Source text: The animals used in the whole animal studies were NCr athymic nude mice. The NCr athymic outbred stock is the standard athymic model for National Cancer Institute (NCI) studies as well as many pharmaceutical and institutional oncology screening programs. The nude gene in homozygous (nu/nu) mice causes the lack of fur and an abnormal thymus. The deficiency in T cell function allows athymic mice to accept and grow xenografts as well as allograftsof normal and malignant tissues. Heterozygous (nu/+) animals carry the recessive nude gene on one chromosome only and therefore have a normal thymus triggered immune system. NCr-nu breeder stock was obtained from the NCI in 1993 after several years of random breeding. It was hysterectomy derived to achieve germfree status prior to its introduction into IBU colonies. This outbred stock has both BALB/c inbred and NIH(S) outbred stock in its genetic background. The homozygotes (nu/nu) used for the proposed investigations are albino animals with the model number of NCRNU-M from […] also being called Tac:Cr:(NCr)-Foxn1^nu: Six week old nude mice were utilized for these studies as they weight approximately 20 grams at this time period and the subcutaneous pumps used to infuse the respective four atrial natriuretic peptides were designed for 20 gram and larger mice. These mice accept malignant tissues. After one week of accliminization to their new surroundings, the mice have 1×10^6 of the adenocarcinoma cells placed under the skin on their backs. […] Tumor volume was calculated by the formula V (volume)=a×b^2/2 where “a” is the largest superficial diameter and b is the smallest superficial diameter. […] When the tumors first became palpable their volume was recorded and then an osmotic pump (Alzet Model 1002) containing either 0.9% saline (control infusion) or one of the respective peptide hormones in 0.9% saline was placed subcutaneously between the shoulder blades under anesthesia (pentobarbital 40 mg/kg body wt intraperitoneally). […]

## vessel dilator: a.a. 31-67 of the 126 a.a. ANP prohormone; peptide hormone from Peninsula Laboratories
[1]
  inhibition of DNA synthesis: 91%
[2]; 139 ng/min/kg infusion in whole animals
  side effects: no side effects
[2]; 139 ng/min/kg of body weight, subcutaneous infusion pump, 14 days, n=14
  growth of the human adenocarcinomas: stopped the growth
[2]; 139 ng/min/kg, 14 days, saline-treated increased 100 mm^3
  change in tumor volume during the two weeks of infusion: no increase in volume

Source: patent US6943147B2, “Cancer treatment using proANP peptides” (University of South Florida, priority 2003, dated 2005)
